According to PubChem BioAssay AID2060899 (Molecular Pharmacology Branch, DTP, NCI, 2025):

Test system: 565726-208-R1-J5-PDC complex spheroids, growth inhibition
Assay: Anticancer human tumor 565726-208-R1-J5-PDC patient-derived pancreatic adenocarcinoma cell line growth inhibition [RAS]
Conditions: for IC50: curve of first compound; for viability, T/C: stronger effect = lower value
Text: RAS pathway inhibitors in Combinations in Complex Spheroids
A high-throughput screen of multi-cell type tumor spheroids was designed to identify active combinations of RAS pathway inhibitors and targeted small molecules. Complex spheroids include a stromal component modeled by human endothelial cells (HUVEC) and fibroblasts modeled by human mesenchymal stem cells (MSCs). The concentration ranges selected for each drug and investigational agent were based upon clinically achievable concentrations if the clinical Cmax of the agent was known.
Compounds. The drugs and investigational agents: abemaciclib (NSC768073), cobimetinib (NSC768068), divarasib (GDC6063, NSC841802), docetaxel (NSC628503), GDC-1971 (RLY-1971, NSC841576), gemcitabine (NSC613327), inavolisib (NSC800729), ipatasertib (NSC767898), KB-0742 (NSC834161), MRTX-1133 (NSC836407), osimertinib (NSC779217), RMC-4630 (NSC839698), RMC-6236 (NSC851965), RMC-6291 (NSC852671), Ro-3306 (NSC812927), sapanisertib (NSC764658), SN-38 (NSC673596), staurosporine (NSC755774), SY5609 (NSC837396), and tovorafenib (DAY101, NSC766906), were obtained from the National Cancer Institute (NCI) Developmental Therapeutics Program Chemical Repository. The FDA-approved anticancer drug set is available from the NCI Developmental Therapeutics Program. […] The stock solutions were prepared in dimethyl sulfoxide (DMSO, Sigma-Aldrich, St. Louis, MO, cat. D2650) at 800-fold the tested concentration and stored at -70 degrees C prior to their use. All drugs and investigational agents were tested over a range starting from a high concentration at or near the clinical Cmax and decreasing in half-log increments. If the clinical Cmax for an agent had not been determined, the highest concentration tested was 10 microM.
Cell Culture. All cells were maintained in an incubator at 37 degrees C and 5% CO2 with 95% humidity. The PDC lines were cultured according to standard operating procedures established by the NCI PDMR. All PDCs were thawed and cultured in Matrigel-coated flasks prepared with a working solution of 1X Ham's F-12 nutrient mix, without supplementation (Invitrogen, Waltham, MA, cat. 11765054), 100 U/mL penicillin-streptomycin (Invitrogen, cat. 15140122), and 2.5% Matrigel (Corning Inc., Corning, NY, cat. 354248) for the first three passages. The 362531-283-R-J2-PDC and 782815-120-R-J1-PDC lines were cultured in 6C/Colon 1B media, which includes advanced DMEM/F-12 (Thermo Fisher Scientific, cat. 12634028), 10 mM HEPES (Thermo Fisher Scientific, cat. 15630080), 1X GlutaMAX supplement (Thermo Fisher Scientific, cat. 35050061), 0.1 mg/mL primocin (InvivoGen, San Diego, CA, cat. ant-pm-2), 10% defined fetal bovine serum, heat inactivated (HyClone Laboratories Inc., Logan, UT, cat. SH30070.03HI), 50% L-WRN conditioned media (ATCC, cat. CRL-3276), 1.25 mM N-Acetyl-L-cysteine (Sigma-Aldrich, cat. A9165), 10 mM nicotinamide (Sigma-Aldrich, cat. N0636), 1X B-27 supplement (Thermo Fisher Scientific, cat. 17504044), 1X N-2 supplement (Thermo Fisher Scientific, cat. 17502048), 50 ng/mL human EGF (Thermo Fisher Scientific, cat. PHG0311), and 10 microM Y-27632 dihydrochloride (Tocris Bioscience, cat. 1254). The K12877-001-R-J1-PDC line was cultured in 6I media, which includes all 6C/Colon 1B media plus 10 ng/mL human FGF-10 (PeproTech, cat. 100-26), 1 ng/mL human FGF-2 (PeproTech, cat. 100-18B), 1 µM prostaglandin E2 (Tocris Bioscience, cat. 2296), […] hydrocortisone (Sigma-Aldrich, cat. H4001), and […] bovine insulin (Sigma-Aldrich, cat. I6634). The K86415-001-R-J1-PDC line was cultured in 6D media, which includes all 6C/Colon 1B media components minus the L-WRN conditioned media. The 485176-168-R4-J1-PDC was cultured in PANC media, which includes all 6C/Colon 1B media plus 100 ng/mL human FGF-10 (PeproTech, cat. 100-26), 500 nM SB-431542 (Selleckchem, cat. S1067), and 10 nM gastrin (Tocris Bioscience, cat. 3006). […]
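Also: spheroids exposed to compounds for seven days before readout.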
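For viability, T/C in this document: 100% = DMSO vehicle control viability.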

Question: Which results are given for `CC(C)NCC(C(=O)N1CCN(c2ncnc3c2C(C)CC3O)CC1)c1ccc(Cl)cc1` (configuration not stated) + C#Cc1c(F)ccc2cc(O)cc(-c3ncc4c(N5CC6CCC(C5)N6)nc(OCC56CCCN5CC(F)C6)nc4c3F)c12?
Answer: IC50 (second compound 0.0316 µM): > 10 µM; IC50 (second compound 0.1 µM): > 10 µM; IC50 (second compound 0.316 µM): > 10 µM; IC50 (second compound 1 µM): > 10 µM; IC50 (second compound 3.16 µM): 0.473 µM; IC50 (second compound 10 µM): 1.21 µM; viability, T/C (second compound 0.0316 µM, first compound 0.0316 µM): 85.7%; viability, T/C (second compound 0.0316 µM, first compound 0.1 µM): 129%; viability, T/C (second compound 0.0316 µM, first compound 0.316 µM): 96%; viability, T/C (second compound 0.0316 µM, first compound 1 µM): 76%; viability, T/C (second compound 0.0316 µM, first compound 3.16 µM): 80.2%; viability, T/C (second compound 0.0316 µM, first compound 10 µM): 91.4%; viability, T/C (second compound 0.1 µM, first compound 0.0316 µM): 108%; viability, T/C (second compound 0.1 µM, first compound 0.1 µM): 114%; viability, T/C (second compound 0.1 µM, first compound 0.316 µM): 80.3%; viability, T/C (second compound 0.1 µM, first compound 1 µM): 77.3%; viability, T/C (second compound 0.1 µM, first compound 3.16 µM): 88%; viability, T/C (second compound 0.1 µM, first compound 10 µM): 86%; viability, T/C (second compound 0.316 µM, first compound 0.0316 µM): 104%; viability, T/C (second compound 0.316 µM, first compound 0.1 µM): 117%; viability, T/C (second compound 0.316 µM, first compound 0.316 µM): 78.1%; viability, T/C (second compound 0.316 µM, first compound 1 µM): 84.9%; viability, T/C (second compound 0.316 µM, first compound 3.16 µM): 71.9%; viability, T/C (second compound 0.316 µM, first compound 10 µM): 80.5%; viability, T/C (second compound 1 µM, first compound 0.0316 µM): 109%; viability, T/C (second compound 1 µM, first compound 0.1 µM): 125%; viability, T/C (second compound 1 µM, first compound 0.316 µM): 76.5%; viability, T/C (second compound 1 µM, first compound 1 µM): 59.5%; viability, T/C (second compound 1 µM, first compound 3.16 µM): 63.4%; viability, T/C (second compound 1 µM, first compound 10 µM): 52.5%; viability, T/C (second compound 3.16 µM, first compound 0.0316 µM): 101%; viability, T/C (second compound 3.16 µM, first compound 0.1 µM): 83.8%; viability, T/C (second compound 3.16 µM, first compound 0.316 µM): 50.7%; viability, T/C (second compound 3.16 µM, first compound 1 µM): 48.4%; viability, T/C (second compound 3.16 µM, first compound 3.16 µM): 38.5%; viability, T/C (second compound 3.16 µM, first compound 10 µM): 34.7%; viability, T/C (second compound 10 µM, first compound 0.0316 µM): 67.8%; viability, T/C (second compound 10 µM, first compound 0.1 µM): 76.6%; viability, T/C (second compound 10 µM, first compound 0.316 µM): 57.6%; viability, T/C (second compound 10 µM, first compound 1 µM): 47.1%; viability, T/C (second compound 10 µM, first compound 3.16 µM): 44.5%; viability, T/C (second compound 10 µM, first compound 10 µM): 21.1%
